The target of series [1] is T1, ERβ (Homo sapiens, UniProt Q92731). In words: R-SAT functional assay, ERβ. The series is classed as cell-based. Set-up: expressed in transfected cells; host or cells: transient transfection.
In series [2] the target is T1, ERβ. In words: Luciferase reporter gene assay (3*ERE) in HEK293 cells, ERβ. The series is classed as cell-based. Set-up: expressed in transfected cells; host or cells: HEK293 cells, transient transfection. How it is done:
(§1) HEK293 cells were grown to 70% confluency in DMEM containing 10% calf serum (Hyclone) prior to transfection. On the day of transfection (day 1), expression vectors for ERα or ERβ were cotransfected along a construct containing a synthetic 3*ERE upstream of the luciferase gene (Panomics), using Polyfect (Qiagen) per manufacturer's recommendations (ERE being estrogen response element). Sixteen hours post-transfection, cells were incubated in serum free DMEM. […] Cells extracts were then obtained by lyzing and the Luciferase activity measured, all of these steps performed using a commercially available kit (Promega).

For series [3], the target named is T1, ERβ. In words: Competitive 3H-estradiol binding assay, ERβ. Set-up: expressed in transfected cells; host or cells: HEK293 cells, transient transfection. How it is done:
(§2) Cells were then harvested by scraping in ice-cold PBS and subsequently lysed using a cold buffer containing 10 mM Tris pH 7.4, 1 mM EDTA, 1 mM DTT before being subjected to polytron twice for 10 seconds. Cytosolic extracts were isolated by centrifugation at 15000 g for 30 minutes at 4° C. Competitive binding of the test compounds or the estradiol control was performed on 20 μL extract by overnight incubation at 4° C. in a total volume of 100 μL containing 1 nM ^3H-estradiol (Perkin Elmer, Boston, Mass.). The bound fraction was separated from the unbound one by the addition of 100 μL of Dextran coated charcoal, incubated for 10 minutes and subsequent centrifugation at 1000 rpm for 10 minutes. Samples (100 μL per sample) were then analyzed by liquid scintillation. Data was then analyzed using the curve fitting software GraphPad Prism.

Series [4] deals with bilateral 6-hydroxydopamine (6OHDA) lesion of the substantia nigra. In words: Bilateral 6OHDA lesion of the substantia nigra, behavioral assessment. The conditions noted are these: 6OHDA rats, once daily 7 days sc; 10 mg/kg (estradiol 100 μg/kg). The series is classed as in vivo, Male rats. As to the method:
(§3) Male rats received baseline assessment of weight, motor function (spontaneous locomotor behavior, rotorod performance) and sensorimotor gating (prepulse inhibition). Subjects were assigned to treatment conditions to equalize performance on all these measures. Subjects were then treated once daily for 7 days with either sesame oil vehicle, estradiol (100 μg/kg sc), Comparative substance 131 (10 mg/kg sc), Compound 8 (10 mg/kg sc), Comparative substance 623 (10 mg/kg sc) or Comparative substance 957 (10 mg/kg sc). On the second day of treatment, subjects received bilateral sham or 6OHDA lesions (8 μg in 4 μl) of the substantia nigra (A/P−5.0 mm, M/L±1.6 mm, D/V−8.2 mm) following the atlas of Paxinos and Watson (Paxinos, G., Watson, C., The Rat Brain in Stereotaxic Coordinates, Fourth Edition, New York: Academic Press, Spiral Bound, 1998). Behavioral assessments of motor function (spontaneous locomotion, rotorod and traversing a challenging beam), cognition (novel object recognition) and sensorimotor gating (prepulse inhibition) began after the final day of treatment. Following behavioral assessment, SN and striatal tissue were collected in order to determine the intactness of the nigrostriatal dopamine system.

Series [5] in a line: Microsomal bioavailability (Table 2). The series is classed as in vitro ADME. Conditions: read-out: Microsomal bioavailability F (%).
The target of series [6] is T2, ERα (Homo sapiens, UniProt P03372).
T2 sequence (P03372 1-595): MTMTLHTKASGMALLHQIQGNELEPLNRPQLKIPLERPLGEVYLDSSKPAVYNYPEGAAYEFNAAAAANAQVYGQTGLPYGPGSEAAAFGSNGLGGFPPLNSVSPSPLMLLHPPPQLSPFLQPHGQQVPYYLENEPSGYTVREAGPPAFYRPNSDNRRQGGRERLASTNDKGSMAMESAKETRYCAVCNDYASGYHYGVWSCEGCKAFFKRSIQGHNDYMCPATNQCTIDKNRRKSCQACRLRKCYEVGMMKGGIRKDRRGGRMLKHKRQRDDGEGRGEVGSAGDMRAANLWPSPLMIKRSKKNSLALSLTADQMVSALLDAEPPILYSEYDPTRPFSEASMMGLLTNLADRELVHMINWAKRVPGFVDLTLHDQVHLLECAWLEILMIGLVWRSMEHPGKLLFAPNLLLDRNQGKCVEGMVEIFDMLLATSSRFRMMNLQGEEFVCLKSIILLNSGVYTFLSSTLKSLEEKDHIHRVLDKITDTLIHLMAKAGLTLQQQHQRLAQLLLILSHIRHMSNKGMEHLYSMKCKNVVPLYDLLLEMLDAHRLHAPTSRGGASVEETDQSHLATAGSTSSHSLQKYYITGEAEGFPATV
In words: Competitive 3H-estradiol binding assay, ERα. The conditions noted are these: 1 nM 3H-estradiol, HEK293T cytosolic extract; read-out: Binding ERα pKi (converted). As to the method:
as §2, with “HEK293T cells were transiently transfected for 48 hours with expression vectors encoding ERα or ERβ, before being serum starved for 4-6 hours. Cells” for “Cells”

Series [7] deals with T2, ERα. In words: Luciferase reporter gene assay (3*ERE) in HEK293 cells, ERα. The series is classed as cell-based. Set-up: expressed in transfected cells; host or cells: transient transfection. The conditions noted are these: 48 hours. As to the method:
as §1

The test system of series [8] is nigrostriatal dopamine neurons. In words: Tyrosine hydroxylase immunofluorescence in SN and STR after 6OHDA lesion. The series is classed as in vivo, Male rats. Conditions: 6OHDA rats, once daily 7 days sc; 10 mg/kg (estradiol 100 μg/kg). How it is done: as §3
Comparative compound 131 and Compound 8 were compared with estradiol for their ability to protect nigrostriatal dopamine neurons as measured by tyrosine hydroxylase (TH) immunohistochemistry in the SN and striatum (STR).

Series [9] concerns the target T1, ERβ. In words: R-SAT functional assay, ERβ. Conditions: NIH3T3; NIH-3T3 cells; read-out: R-SAT Erβ % Eff. Set-up: expressed in transfected cells; host or cells: transient transfection. The series is classed as cell-based. The source says:
(§4) R-SAT® (Receptor Selection and Amplification Technology) is a cell-based functional assay that allows one to monitor receptor-dependent proliferative responses and has been described elsewhere. […] This process is achieved by partial cellular transformation via loss of contact inhibition and growth factor dependency. Monitoring is achieved by transfecting the cells with a β-galactosidase reporter gene vector whose expression is under a constitutively active promoter. Briefly, NIH-3T3 fibroblasts were plated overnight in 96-wells plates in DMEM 10% calf serum (Hyclone) and grown to 60-70% confluency prior to transfection. Transient transfections were performed using Polyfect (Qiagen) according to manufacturer's instructions. Typically a transfection mix would consist of the receptor and the β-galactosidase expression vectors. Sixteen hours post-transfection, cells were incubated with different doses of ligand in DMEM containing 30% Ultraculture (Hyclone) and 0.4% calf serum (Hyclone) to generate a dose response curve. […] Plates were read using a microplate reader at 420 nm. Data from R-SAT® assays were fit to the equation: r=A+B(x/(x+c)), where A=minimum response, B=maximum response minus minimum response, c=EC50, r=response, and x=concentration of ligand. Curves were generated using the curve fitting softwares Excel Fit and GraphPad Prism (San Diego, Calif.). Luciferase Reporter Gene Assay

For series [10], the target named is T2, ERα. In words: R-SAT functional assay, ERα. The series is classed as cell-based. Set-up: expressed in transfected cells; host or cells: NIH-3T3 fibroblasts, transient transfection. Conditions: NIH-3T3 cells.
Excerpt: as §4

The structures appear in SMILES notation.

Consider one compound from patent US9061981B2, “Diphenyl substituted cyclohexane derivatives, useful as modulators of the estrogen receptors beta” (Acadia Pharmaceuticals Inc., priority 2011, dated 2015).

T1 sequence (Q92731 whole entry, species assumed): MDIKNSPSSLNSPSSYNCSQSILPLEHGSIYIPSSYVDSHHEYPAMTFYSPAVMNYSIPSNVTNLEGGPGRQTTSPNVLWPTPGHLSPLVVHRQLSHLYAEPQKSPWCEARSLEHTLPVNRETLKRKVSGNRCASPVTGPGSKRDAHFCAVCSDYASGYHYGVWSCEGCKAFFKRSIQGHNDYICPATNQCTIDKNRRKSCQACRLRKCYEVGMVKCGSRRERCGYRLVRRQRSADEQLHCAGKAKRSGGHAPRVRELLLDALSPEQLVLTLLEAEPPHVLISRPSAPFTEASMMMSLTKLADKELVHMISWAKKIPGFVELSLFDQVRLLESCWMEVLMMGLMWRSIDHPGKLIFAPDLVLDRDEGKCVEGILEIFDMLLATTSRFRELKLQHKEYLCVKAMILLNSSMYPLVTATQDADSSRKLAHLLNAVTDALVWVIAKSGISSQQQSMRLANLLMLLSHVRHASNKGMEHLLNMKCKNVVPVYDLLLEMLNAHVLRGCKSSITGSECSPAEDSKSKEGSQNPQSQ

In turn, `Oc1ccc(C2(c3ccccc3)CCCCC2)cc1` [Compound 131] showed an EC50 at ERβ [1] of 31.6 nM. Further, the EC50 at ERβ [2] is 20 nM. Besides, the Emax on ERβ [2] (HEK293 cells, 48 hours, read-out: Luciferase Erβ % Eff) amounted to 80%. This compound gave a Ki on ERβ [3] of 50.1 nM. Besides, in [4], the “motor performance (spontaneous locomotor activity, rotorod, challenging beam)” value was “prevented the impairment”; the “novel object recognition (cognition)” value is on record as “showed improved memory”; the “prepulse inhibition (sensorimotor gating)” value is “prevented the 6OHDA-induced deficit in PPI”. Also, the Microsomal bioavailability (predicted from microsomes) in [5] was 0%. At ERα [6], the Ki is 1000 nM. Also, the “Luciferase Erα % Eff” value at ERα [7] was 29%. For the same compound, the EC50 at ERα [7] (na = not active, read-out: Luciferase Erα pEC50 (converted)) is 15800 nM. In addition, in series [8], the “percent immunopositive and mean pixel intensity of TH immunofluorescence in the STR” value is “increase in percentage of the image that was immunopositive and increased mean pixel intensity”; the “percent immunopositive, mean cell size and mean pixel intensity of TH immunofluorescence in the SN” value is “improved percent immunopositive, mean cell size and mean pixel intensity”; the “tyrosine hydroxylase positive cell number in the SN” value is “prevented the reduction in cell number”. In addition, the Emax at ERβ [9] came out at 71%. The “R-SAT Erα % Eff” value at ERα [10] is recorded as 42%.
